Where two headings read alike, the source gives them in different places. Ends that are not written are not given here.
What was measured:
[1] = Electronic tongue analysis (Taste-Sensing System SA 402B); set-up: unit not given here; conditions: reference solution 30 mM KCl + 0.3 mM tartaric acid as baseline, first measurement excluded; for Umami: sensor AAE; for Umami / Bitter / Sweet: detection threshold 0, room temperature; for Umami / Bitter / Sour / Salty: four replicates; for Sour: detection threshold -13, room temperature; for Salty: detection threshold -6, room temperature; for Sweet: measured five times
Outline: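 Samples were tested at 0.1 and 1.0 mg/mL on an SA 402B e-tongue fitted with sourness, saltiness, bitterness, sweetness and umami sensors, with 30 mM KCl/0.3 mM tartaric acid as reference and baseline. Thresholds were −13 for sour, −6 for salty and 0 for the rest. Runs at room temperature: four replicates, five for sweetness, first reading discarded.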

[2] = tested on: red blood cells from 6-week-old BALB/c mice (mRBCs); test: Hemolysis assay; type: cell-based, mouse; conditions: mean of Data1-3; 100 μM peptide, 1.5 × 10^8 cells/mL mRBCs, 37°C, 60 min, absorbance 490 nm; PBS 0% and 1% Triton X-100 100% controls
Protocol: The hemolytic activity of synthetic peptides was evaluated using red blood cells from 6-week-old BALB/c mice (mRBCs). Freshly isolated mRBCs were washed three times with PBS buffer (8000 rpm, 2 min per wash) to prepare the mRBC suspension. Equal volumes (70 μL) of 200 μM peptide solutions and mRBC suspension were mixed to achieve final concentrations of 100 μM peptide and 1.5 × 10^8 cells/mL mRBCs in the reaction system. After incubation with shaking at 37°C for 60 min, samples were centrifuged at 10000 rpm for 5 min, and hemoglobin release was assessed by measuring the absorbance of the supernatant at 490 nm. PBS and 1% Triton X-100 treatments served as 0% and 100% hemolysis controls, respectively. A complete dataset of hemolytic activity measurements is documented in S4 Data.

[3] = tested on: human pancreatic ductal epithelial cells (HPNE); test: Cell viability assessment (CCK-8), HPNE; conditions: CCK-8, mean of Data1-3 (n = 3)
[4] = tested on: human umbilical vein endothelial cells (HUVEC); test: Cell viability assessment (CCK-8), HUVEC; conditions: CCK-8, mean of Data1-3 (n = 3)
Protocol: (§1) The cytotoxicity of 73 synthetic peptides was evaluated using four human cell lines: human pancreatic ductal epithelial cells (HPNE), human embryonic kidney cells (HEK293T), human umbilical vein endothelial cells (HUVEC), and human bronchial epithelial cells (BEAS-2B). When cell density reached 70% confluence, the complete culture medium was replaced with serum-free maintenance medium, and peptides were added at a final concentration of 100 μM for 36 h. Control groups received only serum-free maintenance medium without peptides. Cell proliferation was assessed using the CCK-8 assay kit (Solarbio, CA1210) according to the manufacturer’s instructions.

[5] = tested on: human bronchial epithelial cells (BEAS-2B); test: Cell viability assessment (CCK-8), BEAS-2B; conditions: BEAS-2B cells, CCK-8, mean of Data1-3 (n = 3)
Protocol: as §1

[6] = tested on: human embryonic kidney cells (HEK293T); test: Cell viability assessment (CCK-8), HEK293T; conditions: CCK-8, mean of Data1-3 (n = 3)
[7] = known from earlier studies; cited from earlier work
Excerpt: To address these experimental challenges, various computational and artificial intelligence-based approaches for taste peptide identification have emerged. Most reported methods focus on predicting single taste properties, such as BERT4Bitter and iBitter-SCM [42] for bitter peptide identification, while iUmami-SCM [43], Umami-MRNN [[44], iUmami-DRLF [45], and Umami-gcForest are dedicated to umami peptide prediction. Additionally, a few models like Umami_YYDS [35] have been reported to perform binary classification for umami and bitter tastes. However, current methodologie ...

[8] = tested on: human bronchial epithelial cells (BEAS-2B)
Protocol: as §1

[9] = tested on: human embryonic kidney cells (HEK293T)
[10] = tested on: human pancreatic ductal epithelial cells (HPNE)
[11] = tested on: human umbilical vein endothelial cells (HUVEC)
Protocol: as §1

Row | Substance | Umami ([1]; peptide 0.1 mg/mL) | Umami ([1]; peptide 1 mg/mL) | Bitter ([1]; sensor C00, peptide 0.1 mg/mL) | Bitter ([1]; sensor C00, peptide 1 mg/mL) | Sour ([1]; sensor CA0, peptide 0.1 mg/mL) | Sour ([1]; sensor CA0, peptide 1 mg/mL) | Salty ([1]; sensor CT0, peptide 0.1 mg/mL) | Salty ([1]; sensor CT0, peptide 1 mg/mL) | Sweet ([1]; sensor GL1, peptide 0.1 mg/mL) | Sweet ([1]; sensor GL1, peptide 1 mg/mL) | Average hemolysis [2] | Average cell viability, HPNE [3] | Average cell viability, HUVEC [4] | Average cell viability, BEAS-2B [5] | Average cell viability, HEK293T [6] | further results
1 | EPDDPDD [TaPep27] | 0.54 | -6.01 | 7.42 | 3.79 | -0.70 | 14.83 | -22.39 | 8.93 | 3.39 | -6.25 | 1.02% | 91.58 | 94.52 | 105.85 | 98.49 | –
2 | KGDEESLA | – | – | – | – | – | – | – | – | – | – | – | – | – | – | – | taste characteristics [7]: both umami and bitter characteristics
3 | YGRGV [TaPep12] | 3.01 | -2.86 | 8.03 | 0.75 | -6.74 | 6.59 | -17.83 | 7.54 | 7.49 | -7.92 | 0.43% | – | – | – | – | Average cell viability, BEAS-2B [8]: 99.57; Cell viability, BEAS-2B, Data1 [8]: 102.99; Cell viability, BEAS-2B, Data2 [8]: 93.52; Cell viability, BEAS-2B, Data3 [8]: 102.19; Average cell viability, HEK293T [9]: 102.93; Cell viability, HEK293T, Data1 [9]: 99.46; Cell viability, HEK293T, Data2 [9]: 109.02; Cell viability, HEK293T, Data3 [9]: 100.32; Average cell viability, HPNE [10]: 102.90; Cell viability, HPNE, Data1 [10]: 110.82; Cell viability, HPNE, Data2 [10]: 91.75; Cell viability, HPNE, Data3 [10]: 106.12; Average cell viability, HUVEC [11]: 94.89; Cell viability, HUVEC, Data1 [11]: 90.77; Cell viability, HUVEC, Data2 [11]: 98.75; Cell viability, HUVEC, Data3 [11]: 95.16
4 | YKYHES [TaPep13] | 1.81 | -4.92 | 7.46 | -0.78 | -3.77 | 12.34 | -15.97 | 15.30 | 3.50 | -4.65 | 1.05% | 99.43 | 104.44 | 101.89 | 95.55 | –

Source: article PMC12543283, “TastepepAI: An artificial intelligence platform for taste peptide de novo design” (PLOS Computational Biology, 2025)
